Laboratory results taken from patent publication EP0368576B1, “Insecticide comprising a suspension of microcapsules containing chlorpyrifos” (priority 1988, dated 1990).

Assays:
Acute oral toxicity test = settings: mouse, in vivo, ICR male mice (5 weeks old), read-out: Acute oral toxicity LD₅₀
Method: (§1) Tests of the acute oral toxicity and the acute dermal toxicity of the encapsulated insecticide produced in Example 2 and the acute toxicity thereof to fish were carried out as follows.
(§2) A group of 5 ICR male mice (5 weeks old) and a group of 5 Wister male rats (8 weeks old) were used for the acute oral toxicity test and the acute dermal toxicity test, respectively. Tests were carried out to obtain LD₅₀ values in accordance with the toxicity guidance of agricultural chemicals (Agricultural production No. 59 - 4200) (Notification of Director-General, Agricultural Production Bureau, 59 Nohsan No. 4200 dated January 28, 1985) issued by the Agricultural and Fisheries Ministry. The test for acute toxity to fish was carried out using groups of carp, each group consisting of 10 carp, in accordance with the Circular Notice No. 2735 issued by Director of the Agricultural Administration Bureau in the Agricultural and Fisheries Ministry to obtain the TLm of each group.

carp = experiment: Acute toxicity to fish; type: in vivo
Method: as §1, §2

[1] = Test of the release property in soil; type: physicochemical; settings: sand soil, 65 days; rate based on the original amount
Method: 7.5 g of the encapsulated insecticide produced in Example 2 was dispersed in 100 mℓ of water, and 1 mℓ of the dispersion was added to 30 g of soil (sand soil of Mt. Kannan) which had been put into a 100-mℓ beaker, and thoroughly mixed therewith.
Separately from this, 1500 mg of the chlorpyrifos was dissolved into 100 mℓ of acetone and 1 mℓ of the solution was added to 30 g of soil (same as above) and thoroughly mixed therewith.
The beaker was covered with aluminium foil, and water was sometimes sprayed on the soil to prevent the soil from drying. 65 days after, the amount of chlorpyrifos in the beaker was measured.
In order to measure the total amount of chlorpyrifos, 150 mℓ of acetone and 2 mℓ of concentrated hydrochloric acid was added to 30 g of the soil. The mixture was refluxed under heating in a water bath at 65°C for 1 hour, and after cooling filtered through No. 5C filter paper. The residue was further washed with 100 mℓ of acetone, and diluted so that the total volume was 250 mℓ to measure the amount of chlorpyrifos by high-speed liquid chromatography.
The amount of chlorpyrifos liberated was measured in the following manner. A mixture solvent of methanol and water (60/40) was added to 30 g of the soil. After the mixture was shaken for 10 minutes, the mixture was filtered through No. 5C filter paper. […]

[2] = Acute dermal toxicity test; settings: Wistar, rat, in vivo, topical or ocular, Wister male rats (8 weeks old), read-out: Acute dermal toxicity LD₅₀
Method: as §1, §2

Q: What does the source list for CCOP(=S)(OCC)Oc1nc(Cl)c(Cl)cc1Cl [Technical, 0,0-diethyl-0-3,5,6-trichloro-2-pyridyl-phosphorothioate]?
A: LD50 (Acute oral toxicity test): 178 mg/kg; Toxicity to fish TLm (48 h) (carp): 0.13 ppm; Amount of chlorpyrifos remaining in the soil: Total amount of chlorpyrifos [1]: 41 wt%; LD50 [2]: 202 mg/kg
